Assay results as given in patent US10874659B2, “Iloperidone metabolite for use in the treatment of psychiatric disorders” (Vanda Pharmaceuticals, Inc., priority 2012, dated 2020).

Assay: Conversion of (R)-P88 and (S)-P88 to iloperidone in human liver S9 fraction in the presence of NAD and NADP
Type: in vitro ADME
Settings: 13 concentrations 1 to 100 μM, initial rate conditions
Procedure: The aim of this study was to evaluate the potential conversion of (R)-P88 and (S)-P88 to iloperidone in human liver S9 fraction in the presence of NAD and NADP. A copy of the final report from this study, entitled, “InVitro Metabolism of (R)-P88 and (S)-P88 in Human Liver S9 Fraction,” (“Final Report”) is attached.
Three concentrations of (R)-P88 and (S)-P88 (1, 10 and 100 μM) were incubated with human liver S9 fractions in the presence of NAD and NADP. Under initial rate conditions, 13 concentrations of (R)-P88 and (S)-P88 (1 to 100 μM) were incubated with human liver S9 fractions to determine the Michaelis-Menten enzyme kinetic constants, Km and Vmax, for the formation of iloperidone.

Compound	Enzyme kinetic behaviour of the conversion to iloperidone (plot shape / best-fit model)
COc1cc([C@@H](C)O)ccc1OCCCN1CCC(c2noc3cc(F)ccc23)CC1 [R-P88]	slightly S-shaped direct plot and “hook”-shaped Eadie-Hofstee plot suggesting allosteric interactions
COc1cc([C@H](C)O)ccc1OCCCN1CCC(c2noc3cc(F)ccc23)CC1 [S-P88]	best fit a biphasic saturation enzyme model
